# Data taken from paper PMC8068801, “Novel Benzenesulfonate Scaffolds with a High Anticancer Activity and G2/M Cell Cycle Arrest” (Cancers, 2021).
# What was measured:
# K562 cells = experiment: MTS cytotoxicity assay, K562; format: cell-based, human
# Source text: (§1) M. Rusin from the Maria Sklodowska-Curie Memorial Cancer Centre and Institute of Oncology in Gliwice, Poland. […] G. Kramer-Marek from the Institute of Cancer Research in London, United Kingdom. The human suspension chronic myelogenous leukemia cell line K562 and pancreas ductal adenocarcinoma cell line PANC-1 were purchased from Sigma-Aldrich (St. Louis, MO, USA), while the normal human dermal fibroblasts cell line NHDF were purchased from PromoCell. […] Each medium contained a combination of two antibiotics: penicillin and streptomycin (1% v/v; Gibco). All of these cell lines were grown under standard conditions at 37 °C with a 5% CO2 humidified atmosphere. Moreover, all of the cell lines were routinely tested for mycoplasma using the PCR technique with specific Mycoplasma primers to confirm that there was no contamination.
# (§2) The assay was performed following a 72 h incubation with the various concentrations of the tested compounds. Then, 100 µL DMEM without phenol red with 20 µL of the CellTiter 96®AQueous One Solution-MTS (Promega, Promega, WI, USA) was added to each well and incubated for 1 h or 3 h (PANC-1) at 37 °C. The optical densities of the samples were measured at 490 nm using a multi-plate reader (Synergy 4, BioTek, Winooski, VT, USA). […] Each individual compound was tested in triplicate in a single experiment with each experiment being performed three or four times.
# HCT 116 p53^+/+ cells = experiment: MTS cytotoxicity assay, HCT 116 p53+/+; format: cell-based, human
# Source text: as §1, §2
# HCT 116 p53^−/− cells = experiment: MTS cytotoxicity assay, HCT 116 p53-/-; format: cell-based, human
# Source text: as §1, §2
# MCF-7 cells = experiment: MTS cytotoxicity assay, MCF-7; format: cell-based, human
# Source text: as §1, §2
# A549 cells = experiment: MTS cytotoxicity assay, A549; format: cell-based, human
# Source text: as §1, §2
# PANC-1 cells = experiment: MTS cytotoxicity assay, PANC-1; format: cell-based, human
# Source text: as §1, §2
# NHDF cells = experiment: MTS cytotoxicity assay, normal fibroblasts NHDF; format: cell-based; conditions: NHDF normal human fibroblasts, 72 h incubation
# Source text: as §1, §2
# ABL1 = biological target: T1, ABL1 (Homo sapiens, UniProt P00519); experiment: Tyrosine kinase assay (Kinase Selectivity TK-2, ADP-Glo); format: biochemical; conditions: read-out: Inhibitory Effect of the Tyrosine Kinase Activity, ABL1
# T1 construct: purchased Promega
# T1 sequence (P00519 whole entry): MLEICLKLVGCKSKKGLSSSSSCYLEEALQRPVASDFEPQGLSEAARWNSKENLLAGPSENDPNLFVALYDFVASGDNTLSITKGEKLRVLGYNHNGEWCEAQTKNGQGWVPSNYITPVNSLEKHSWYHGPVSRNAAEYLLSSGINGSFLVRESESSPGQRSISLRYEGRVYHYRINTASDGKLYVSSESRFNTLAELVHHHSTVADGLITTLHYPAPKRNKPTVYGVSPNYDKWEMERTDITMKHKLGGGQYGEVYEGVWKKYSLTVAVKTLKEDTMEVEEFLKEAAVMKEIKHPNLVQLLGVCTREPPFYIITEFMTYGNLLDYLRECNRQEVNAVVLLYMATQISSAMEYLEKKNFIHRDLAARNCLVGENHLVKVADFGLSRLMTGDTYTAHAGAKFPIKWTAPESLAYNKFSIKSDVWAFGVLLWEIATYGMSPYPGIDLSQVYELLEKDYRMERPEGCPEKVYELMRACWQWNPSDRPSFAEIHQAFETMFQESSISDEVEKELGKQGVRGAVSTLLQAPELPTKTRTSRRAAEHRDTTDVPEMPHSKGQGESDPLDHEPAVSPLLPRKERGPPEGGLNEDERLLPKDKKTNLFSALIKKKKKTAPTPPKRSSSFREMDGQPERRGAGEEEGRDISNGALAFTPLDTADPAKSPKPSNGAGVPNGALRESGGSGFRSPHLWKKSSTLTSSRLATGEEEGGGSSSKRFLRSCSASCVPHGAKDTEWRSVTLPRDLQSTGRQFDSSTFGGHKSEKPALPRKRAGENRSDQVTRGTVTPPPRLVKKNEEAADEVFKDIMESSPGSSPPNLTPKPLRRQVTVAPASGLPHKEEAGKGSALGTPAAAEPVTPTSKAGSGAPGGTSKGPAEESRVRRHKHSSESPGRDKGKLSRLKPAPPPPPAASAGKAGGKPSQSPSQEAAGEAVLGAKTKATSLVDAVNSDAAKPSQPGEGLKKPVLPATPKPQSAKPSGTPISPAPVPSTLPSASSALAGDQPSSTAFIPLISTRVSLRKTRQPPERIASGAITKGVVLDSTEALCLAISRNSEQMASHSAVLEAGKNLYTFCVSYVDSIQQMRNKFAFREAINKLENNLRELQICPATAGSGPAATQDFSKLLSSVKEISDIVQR
# Description: (§3) Assays using the Kinase Selectivity TK-2 profiling systems and ADP-Glo Kinase Assay (both from Promega) were performed to determine the inhibition of the non-receptor tyrosine kinases. The protocol was previously designed and described by our group in reports. The experiments were performed at least four times. The data are expressed as the percentage of the inhibition activity of tyrosine kinase after treatment with the tested derivatives.
# BRK = biological target: T2, BRK (Homo sapiens, UniProt Q13882); experiment: as above; format: biochemical; conditions: read-out: Inhibitory Effect of the Tyrosine Kinase Activity, BRK
# T2 construct: purchased Promega
# T2 sequence (Q13882 whole entry): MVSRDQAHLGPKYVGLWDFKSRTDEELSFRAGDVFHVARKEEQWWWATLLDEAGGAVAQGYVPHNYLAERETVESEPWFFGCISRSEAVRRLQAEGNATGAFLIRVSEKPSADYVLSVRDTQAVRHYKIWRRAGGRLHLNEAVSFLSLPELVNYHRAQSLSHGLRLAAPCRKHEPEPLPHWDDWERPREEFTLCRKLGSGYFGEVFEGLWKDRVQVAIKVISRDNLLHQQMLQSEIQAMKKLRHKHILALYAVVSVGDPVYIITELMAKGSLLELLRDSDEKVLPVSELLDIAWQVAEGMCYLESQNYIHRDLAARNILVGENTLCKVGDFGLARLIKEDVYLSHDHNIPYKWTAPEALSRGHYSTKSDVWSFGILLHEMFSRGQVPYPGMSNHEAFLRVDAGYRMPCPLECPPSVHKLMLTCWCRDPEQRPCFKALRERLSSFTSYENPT
# Description: as §3
# CSK = biological target: T3, CSK (Homo sapiens, UniProt P41240); experiment: as above; format: biochemical; conditions: read-out: Inhibitory Effect of the Tyrosine Kinase Activity, CSK
# T3 construct: purchased Promega
# T3 sequence (P41240 whole entry): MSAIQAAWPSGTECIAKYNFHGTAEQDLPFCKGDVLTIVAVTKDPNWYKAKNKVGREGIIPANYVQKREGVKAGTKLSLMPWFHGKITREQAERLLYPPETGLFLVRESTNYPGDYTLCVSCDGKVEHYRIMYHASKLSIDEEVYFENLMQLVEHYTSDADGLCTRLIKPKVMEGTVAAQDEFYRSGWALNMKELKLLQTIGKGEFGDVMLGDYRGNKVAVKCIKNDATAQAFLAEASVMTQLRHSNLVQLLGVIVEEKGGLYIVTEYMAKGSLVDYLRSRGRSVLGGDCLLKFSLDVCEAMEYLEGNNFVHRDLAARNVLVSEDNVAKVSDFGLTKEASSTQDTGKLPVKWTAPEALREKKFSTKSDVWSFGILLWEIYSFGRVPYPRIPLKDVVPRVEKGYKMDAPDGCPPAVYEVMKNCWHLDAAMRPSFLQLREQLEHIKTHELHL
# Description: as §3
# Fyn A = biological target: T4, Fyn A (Homo sapiens, UniProt P06241); experiment: as above; format: biochemical; conditions: read-out: Inhibitory Effect of the Tyrosine Kinase Activity, Fyn A
# T4 construct: purchased Promega
# T4 sequence (P06241 whole entry): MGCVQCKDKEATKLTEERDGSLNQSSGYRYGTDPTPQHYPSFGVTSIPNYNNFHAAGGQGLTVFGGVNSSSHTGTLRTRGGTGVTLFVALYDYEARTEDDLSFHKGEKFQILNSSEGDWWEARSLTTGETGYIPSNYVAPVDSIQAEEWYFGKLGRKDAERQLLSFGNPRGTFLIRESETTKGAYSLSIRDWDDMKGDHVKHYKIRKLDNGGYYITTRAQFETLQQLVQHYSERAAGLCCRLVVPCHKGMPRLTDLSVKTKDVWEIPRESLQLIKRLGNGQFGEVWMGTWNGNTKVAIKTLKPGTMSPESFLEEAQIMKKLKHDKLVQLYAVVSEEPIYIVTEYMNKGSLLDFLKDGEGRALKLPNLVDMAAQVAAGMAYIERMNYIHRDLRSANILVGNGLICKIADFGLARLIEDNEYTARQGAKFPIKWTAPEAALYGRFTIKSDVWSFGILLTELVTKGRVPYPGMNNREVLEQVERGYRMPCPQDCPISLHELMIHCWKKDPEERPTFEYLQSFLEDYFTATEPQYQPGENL
# Description: as §3
# Lyn B = biological target: T5, Lyn B (Homo sapiens, UniProt P07948); experiment: as above; format: biochemical; conditions: read-out: Inhibitory Effect of the Tyrosine Kinase Activity, Lyn B
# T5 construct: purchased Promega
# T5 sequence (P07948 1-491 isoform P07948-2): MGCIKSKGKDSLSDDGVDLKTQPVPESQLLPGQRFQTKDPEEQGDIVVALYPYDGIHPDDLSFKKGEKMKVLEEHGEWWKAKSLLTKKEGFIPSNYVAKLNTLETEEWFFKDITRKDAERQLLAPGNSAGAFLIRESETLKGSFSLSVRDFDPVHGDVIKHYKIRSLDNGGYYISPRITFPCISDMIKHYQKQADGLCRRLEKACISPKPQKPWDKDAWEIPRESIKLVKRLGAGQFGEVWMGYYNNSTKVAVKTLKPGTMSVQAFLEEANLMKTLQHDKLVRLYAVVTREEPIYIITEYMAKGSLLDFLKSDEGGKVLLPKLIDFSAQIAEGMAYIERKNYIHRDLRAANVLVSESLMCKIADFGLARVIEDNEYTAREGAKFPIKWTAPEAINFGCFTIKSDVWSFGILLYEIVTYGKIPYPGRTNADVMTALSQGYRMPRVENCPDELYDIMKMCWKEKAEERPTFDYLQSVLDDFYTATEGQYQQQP
# Description: as §3
# U-251 cells = experiment: Immunoblotting with densitometry, U-251; format: cell-based, human; conditions: 24 h; for PARP/Reference 89 kDa, densitometric intensity ratio / caspase-9/Reference 37-35 kDa, densitometric intensity ratio: control 0.330; for BID/Reference 22 kDa, densitometric intensity ratio / Cathepsin b/Reference 44 kDa, densitometric intensity ratio / HIF-1α/Reference 120 kDa, densitometric intensity ratio / PARP/Reference 116 kDa, densitometric intensity ratio / caspase-9/Reference 47 kDa, densitometric intensity ratio / cdc2/Reference 34 kDa, densitometric intensity ratio / cyclin E1/Reference 48 kDa, densitometric intensity ratio / p21/Reference 21 kDa, densitometric intensity ratio / p53/Reference 53 kDa, densitometric intensity ratio: control 1.000; for Cathepsin b/Reference 27 kDa, densitometric intensity ratio: control 2.837; for Cathepsin b/Reference 22 kDa, densitometric intensity ratio: control […]
# Description: The K562 and U-251 cells were seeded in 3 cm Petri dishes (Nunc) at a density of 500,000 cells per well and incubated overnight. […] Next, the cell pellets were resuspended in an RIPA buffer containing a Halt Protease Inhibitor Cocktail and a Halt Phosphatase Inhibitor Cocktail along with 0.5 M EDTA (all from Thermo Scientific, Waltham, MA, USA) and lysed on ice for 20 min. Then, the obtained lysates were sonicated and centrifuged at 10,000 rpm for 10 min at 4 °C. The supernatants were collected for further analysis. The protein concentration was measured using a Micro BCA™ Protein Assay Kit (Thermo Scientific) according to the manufacturer’s instructions. Equal amounts of the proteins (16 μg) were electrophoresed on SDS-Page gels and transferred onto nitrocellulose membranes. The membranes were blocked in 5% non-fat milk prepared in TPBS (PBS containing 0.1% Tween-20) for 1 h. After blocking, the membranes were incubated with the specific primary antibodies (all from Cell Signaling) at a 1:1000 dilution—cyclin E, cdc2, PARP, AIF, BID, p53, p21^Waf1/Cip1, HIF-1α, cathepsin B and caspase-9—and at a 1:2000 dilution for the reference proteins—vinculin, β-actin and GAPDH—overnight at 4 °C. The next day, the membranes were washed in TPBS and incubated with horseradish peroxidase (HRP)-conjugated secondary antibodies for 1 h at room temperature. Lastly, the membranes were washed in TPBS and incubated with a SuperSignal™ West Pico Chemiluminescent Substrate (Thermo Scientific). The chemiluminescence signals were captured using a ChemiDoc™ XRS + System (Biorad). The experiments were performed at least four to five times. The densitometric analysis was conducted using ImageJ software (Wayne Rasband, National Institutes of Health, Bethesda, MD, USA).
# The band intensity of tested proteins (p53, cyclin E1, cdc2, p21, HIF-1α, cathepsin b, PARP, caspase-9, BID, AIF) were analyzed by densitometry readings/intensity ratio, using ImageJ software (NIH) and were normalized to the corresponding reference proteins (GAPDH, vinculin or β-actin) value.
# The densitometric readings/intensity ratio data from four/five independent experiments (compared to control): […]
# p53/ Refer- p21/ Refer- cdc2/ Refer- Cyclin E1/ HIF-1α/ Cathepsin b/Reference ence ence ence Reference Reference
# PARP/Reference BID/ Reference Caspase-9/Reference […]
smiles,measurement,setting,value
"COc1ccccc1/C=C/c1nc(OS(=O)(=O)c2cc3c(cc2Br)OCO3)c2ccccc2n1 [BS2, 2-((E)-2-(2-methoxyphenyl)ethenyl)quinazolin-4-yl 6-bromo-1,3-benzodioxole-5-sulfonate]",IC50,"K562 cells; Homo sapiens, K562, 72 h incubation, MTS",0.246 ± 0.055 µM
same,"Selectivity index, K562",K562 cells; normal fibroblasts NHDF vs K562,63.70
same,IC50,"HCT 116 p53^+/+ cells; Homo sapiens, HCT 116 p53^+/+, 72 h incubation, MTS",1.2 ± 0.132 µM
same,"Selectivity index, HCT 116 p53+/+",HCT 116 p53^+/+ cells; NHDF vs HCT 116 p53+/+,13.06
same,IC50,"HCT 116 p53^−/− cells; Homo sapiens, HCT 116 p53^−/−, 72 h incubation, MTS",1.31 ± 0.29 µM
same,"Selectivity index, HCT 116 p53 −/−",HCT 116 p53^−/− cells; NHDF vs HCT 116 p53 −/−,11.94
same,IC50,"MCF-7 cells; Homo sapiens, MCF7, MCF-7, 72 h incubation, MTS",16.8 ± 2.06 µM
same,"Selectivity index, MCF-7",MCF-7 cells; NHDF vs MCF-7,0.93
same,IC50,"A549 cells; Homo sapiens, A549, 72 h, A549, 72 h incubation, MTS",> 25 µM
same,"Selectivity index, A549",A549 cells; NHDF vs A549,1.00
same,IC50,"PANC-1 cells; Homo sapiens, PANC-1, 72 h incubation, MTS",2.91 ± 0.622 µM
same,"Selectivity index, PANC-1",PANC-1 cells; NHDF vs PANC-1,5.39
same,IC50,NHDF cells,15.7 ± 1.41 µM
same,inhibition at 0.5 µM,ABL1,0%
same,inhibition at 0.5 µM,BRK,9.33%
same,inhibition at 0.5 µM,CSK,34.2%
same,inhibition at 0.5 µM,Fyn A,0%
same,inhibition at 0.5 µM,Lyn B,38%
same,"PARP/Reference 89 kDa, densitometric intensity ratio","U-251 cells; U-251, 4µM",0.763
same,"caspase-9/Reference 37-35 kDa, densitometric intensity ratio","U-251 cells; U-251, 4µM",1.071
same,"BID/Reference 22 kDa, densitometric intensity ratio","U-251 cells; U-251, 4µM",0.701
same,"Cathepsin b/Reference 44 kDa, densitometric intensity ratio","U-251 cells; U-251, 4µM",1.805
same,"HIF-1α/Reference 120 kDa, densitometric intensity ratio","U-251 cells; U-251, 4µM",0.587
same,"PARP/Reference 116 kDa, densitometric intensity ratio","U-251 cells; U-251, 4µM",0.953
same,"caspase-9/Reference 47 kDa, densitometric intensity ratio","U-251 cells; U-251, 4µM",1.007
same,"cdc2/Reference 34 kDa, densitometric intensity ratio","U-251 cells; U-251, 4µM",2.272
same,"cyclin E1/Reference 48 kDa, densitometric intensity ratio","U-251 cells; U-251, 4µM",0.465
same,"p21/Reference 21 kDa, densitometric intensity ratio","U-251 cells; U-251, 4µM",2.205
same,"p53/Reference 53 kDa, densitometric intensity ratio","U-251 cells; U-251, 4µM",1.698
same,"Cathepsin b/Reference 27 kDa, densitometric intensity ratio","U-251 cells; U-251, 4µM",2.625
same,"Cathepsin b/Reference 22 kDa, densitometric intensity ratio","U-251 cells; U-251, 4µM",2.893
same,"PARP/Reference 89 kDa, densitometric intensity ratio","U-251 cells; U-251, 6µM",0.698
same,"caspase-9/Reference 37-35 kDa, densitometric intensity ratio","U-251 cells; U-251, 6µM",1.188
same,"BID/Reference 22 kDa, densitometric intensity ratio","U-251 cells; U-251, 6µM",1.227
same,"Cathepsin b/Reference 44 kDa, densitometric intensity ratio","U-251 cells; U-251, 6µM",2.641
same,"HIF-1α/Reference 120 kDa, densitometric intensity ratio","U-251 cells; U-251, 6µM",0.661
same,"PARP/Reference 116 kDa, densitometric intensity ratio","U-251 cells; U-251, 6µM",0.940
same,"caspase-9/Reference 47 kDa, densitometric intensity ratio","U-251 cells; U-251, 6µM",1.035
same,"cdc2/Reference 34 kDa, densitometric intensity ratio","U-251 cells; U-251, 6µM",2.282
same,"cyclin E1/Reference 48 kDa, densitometric intensity ratio","U-251 cells; U-251, 6µM",0.392
same,"p21/Reference 21 kDa, densitometric intensity ratio","U-251 cells; U-251, 6µM",2.783
same,"p53/Reference 53 kDa, densitometric intensity ratio","U-251 cells; U-251, 6µM",1.448
same,"Cathepsin b/Reference 27 kDa, densitometric intensity ratio","U-251 cells; U-251, 6µM",3.172
same,"Cathepsin b/Reference 22 kDa, densitometric intensity ratio","U-251 cells; U-251, 6µM",3.717
